The values below come from ChEMBL document CHEMBL3785074, “Molecular modeling and snake venom phospholipase A2 inhibition by phenolic compounds: Structure-activity relationship” (Eur J Med Chem, 2016).

The structures appear in SMILES notation. Active and inactive are the calls of the source. The calls are words filed in the database; no cut-off is given here.

Data set [1] has as its system Daboia russelii. The experiment in a line: (§1) Protective activity against Daboia russellii venom-induced mortality in Swiss albino mouse at 100 mmol, iv by measuring venom LD50 administered immediately after venom injection measured after 24 hrs (reference value: 2.28ug). The format is functional.
The subject of data set [2] is Naja kaouthia.
Data set [3] is described as follows: Lipophilicity, log P of compound. Type of data set: physicochemical. The note with it: octanol/water; read-out: logP.
Data set [4] relates to Naja kaouthia. This is another data set of the same source.
Description: Protective activity against Naja kaouthia venom-induced mortality in Swiss albino mouse at 100 mmol, iv by measuring venom LD50 administered immediately after venom injection measured after 24 hrs (Rvb = 2.82 ug)
The subject of data set [5] is Daboia russelii.
The nature of data set [6]: Protective activity against Daboia russellii venom-induced hemorrhage in Swiss albino mouse at 100 mmol, iv assessed as hemorhagic lesion administered immediately after venom injection measured after 24 hrs relative to untreated control. The format is functional, Daboia russelii.
Data set [7] in a line: Protective activity against Daboia russellii venom-induced hemorrhage in intradermally dosed Swiss albino mouse at 100 mmol assessed as hemorhagic lesion by measuring minimal […] dose preincubated with venom for 1 hr followed by administration to mouse measured after 24 hrs (reference value: 5 ug). The format is functional, Daboia russelii.
Data set [8] in a line: Protective activity against Daboia russellii venom-induced hemorrhage in Swiss albino mouse at 100 mmol, iv assessed as hemorhagic lesion by measuring […] administered immediately after venom injection measured after 24 hrs (Rvb =5 ug). Type of data set: functional, Daboia russelii.
Data set [9] is described as follows: Protective activity against Daboia russellii venom-induced hemorrhage in intradermally dosed Swiss albino mouse at 100 mmol assessed as hemorhagic lesion preincubated with venom for 1 hr followed by administration to mouse measured after 24 hrs relative to untreated control. The format is functional, Daboia russelii.
A short description of data set [10]: as §1. The format is functional, Daboia russelii.
Data set [11] is described as follows: Protective activity against Naja kaouthia venom-induced mortality in Swiss albino mouse at 100 mmol, iv by measuring venom LD50 preincubated with venom for 1 hr followed by administration to mouse measured after 24 hrs (reference value: 2.82 ug). Type of data set: functional.
Data set [12] can be described thus: Protective activity against Daboia russellii venom-induced mortality in Swiss albino mouse at 100 mmol, iv administered immediately after venom injection measured after 24 hrs relative to untreated control. The format is functional, Daboia russelii.
The nature of data set [13]: Protective activity against Naja kaouthia venom-induced mortality in Swiss albino mouse at 100 mmol, iv by measuring venom LD50 administered immediately after venom injection measured after 24 hrs (reference value: 2.82 ug). The format is functional.
Data set [14] can be described thus: Protective activity against Daboia russellii venom-induced mortality in Swiss albino mouse at 100 mmol, iv preincubated with venom for 1 hr followed by administration to mouse measured after 24 hrs relative to untreated control. The format is functional, Daboia russelii.
Data set [15] can be described thus: Protective activity against Naja kaouthia venom-induced mortality in Swiss albino mouse at 100 mmol, iv preincubated with venom for 1 hr followed by administration to mouse measured after 24 hrs relative to untreated control. The format is functional.
The nature of data set [16]: Protective activity against Naja kaouthia venom-induced mortality in Swiss albino mouse at 100 mmol, iv administered immediately after venom injection measured after 24 hrs relative to untreated control. Type of data set: functional.
The nature of data set [17]: Protective activity against Daboia russellii venom-induced mortality by measuring venom LD50 in Swiss albino mouse at 100 mmol, iv preincubated with venom for 1 hr followed by administration to mouse measured after 24 hrs (reference value: 2.28 ug). Type of data set: functional, Daboia russelii.

What is called logP is a log measure of how a compound divides between an organic and an aqueous phase. Consider `COc1cccc(OC)c1` [1,3-DIMETHOXYBENZENE], for which the LD50 entry with Daboia russelii [1], with Naja kaouthia [2], with Naja kaouthia [4] and with Daboia russelii [5] was “inactive” each time. For the same molecule, the logP in [3] worked out at 1.44. The “fold change (FC)” value in data set [6] is reported as 1; in data set [9], 2. Moreover, the MHC in data set [7] came out at 10 µg; in data set [8], 5 µg.
`Oc1ccccc1` [PHENOL]: the LD50 result with Daboia russelii [1], in the data set on Naja kaouthia [2], with Naja kaouthia [4] and in the data set on Daboia russelii [5] was “inactive” each time. In addition, in data set [3], the logP came out at 1.76. The “fold change (FC)” value in [6] turned out to be 1; in [9] it was 2. Further, the MHC in [7] came to 10 µg; in data set [8], 5 µg.
With `COc1ccccc1` [ANISOLE], the LD50 entry in the data set on Daboia russelii [1], in the data set with Naja kaouthia [2], in the data set with Naja kaouthia [4] and in the data set on Daboia russelii [5] was “inactive” throughout. Further, the lipophilicity (logP) in data set [3] was 1.44. Moreover, the “fold change (FC)” value came out at 1 in [6] and 2 in [9]. Also, the MHC in data set [7] was determined as 10 µg; in data set [8], 5 µg.
For the molecule `Oc1ccc(O)cc1` [HYDROQUINONE], the LD50 result in the data set on Daboia russelii [1], in the data set with Naja kaouthia [2], in the data set on Naja kaouthia [4] and with Daboia russelii [5] was “inactive” in each case. The logP in data set [3] is 1.48. In addition, the “fold change (FC)” value in data set [6] was 2; in data set [9], 4. For the same molecule, the MHC turned out to be 20 µg in data set [7] and 10 µg in [8].
Take `CCOc1cc(C=O)ccc1O` [ETHYL VANILLIN]: the LD50 was determined as 100 µg in [10], 3 µg in [11], 10 µg in [13] and 11 µg in [17]. Moreover, the “fold change (FC)” value in data set [12] was 2.5; in data set [14], 4.9; in data set [6], 2; in [15], 1; in [16], 2; in data set [9], 3. In data set [3], the logP amounted to 1.81. Further, the results for the MHC in data set [7] and in data set [8] were 15 µg and 10 µg, respectively.
Turning to `O=Cc1cccc(O)c1` [3-HYDROXYBENZALDEHYDE], the “fold change (FC)” value in data set [12] amounted to 1.25; in data set [14], 2.6; in [6], 3; in data set [15] it was 1; in [9], 6. Moreover, the results for the MHC in data set [7] and in [8] were 30 µg and 15 µg, respectively.
In the case of `COc1ccc(C=O)cc1O` [ISOVANILLIN], the LD50 result with Daboia russelii [1], in the data set on Naja kaouthia [2], with Naja kaouthia [4] and in the data set with Daboia russelii [5] was “inactive” each time. Besides, the “fold change (FC)” value in data set [6] and in [9] was 2 throughout. Moreover, the MHC in data set [7] and in [8] was 10 µg each time.
`COc1ccccc1C=O` [2-METHOXYBENZALDEHYDE]: the LD50 in data set [10] was 100 µg; in data set [11] it was 6 µg; in [17], 18 µg. Besides, the “fold change (FC)” value in data set [12] is on record as 2.5; in data set [14], 8; in data set [6], 1; in data set [15], 2.1; in [9], 2. Further, in [3], the logP stood at 1.15. Further, the LD50 result with Naja kaouthia [4] is “inactive”. The MHC in data set [7] was found to be 10 µg; in data set [8] it was 5 µg.
With `O=Cc1ccc(O)cc1` [4-HYDROXYBENZALDEHYDE], the LD50 is 50 µg in data set [10], 3 µg in [11] and 6 µg in [17]. Moreover, the “fold change (FC)” value in [12] came to 1.25; in [14] it was 2.6; in [6] it was 2; in data set [15], 1; in [9] it was 3. Further, the logP in data set [3] was 1.15. The LD50 entry in the data set with Naja kaouthia [4] is “inactive”. In addition, the MHC in data set [7] was found to be 15 µg; in [8] it was 10 µg.
As for `Oc1cccc(O)c1` [RESORCINOL], the LD50 result in the data set on Daboia russelii [1], in the data set with Naja kaouthia [2], with Naja kaouthia [4] and in the data set on Daboia russelii [5] was “inactive” each time. The logP in data set [3] turned out to be 1.48. Further, the “fold change (FC)” value in [6] and in data set [9] was 2 in each case. The MHC in data set [7] and in data set [8] was 10 µg in each case.
On to `O=Cc1cccc(O)c1O`, for which the LD50 entry in the data set on Daboia russelii [1] and with Naja kaouthia [4] was “inactive” throughout. For the same molecule, the LD50 amounted to 3 µg in data set [11] and 5 µg in data set [17]. For the same molecule, the logP in data set [3] came to 1.19. The “fold change (FC)” value in data set [14] is on record as 2.1; in data set [6] it was 2; in data set [15], 1; in data set [9] it was 8. Moreover, the MHC in [7] worked out at 40 µg; in [8], 10 µg.
As to `Oc1ccccc1O` [CATECHOL], the LD50 entry with Daboia russelii [1], in the data set with Naja kaouthia [2], in the data set on Naja kaouthia [4] and with Daboia russelii [5] was “inactive” each time. Moreover, in [3], the logP came out at 1.48. For the same molecule, the figures for the “fold change (FC)” value in data set [6] and in data set [9] were 3 and 5, respectively. The MHC in [7] came to 25 µg; in [8], 15 µg.
Regarding `O=Cc1ccc(O)c(O)c1` [PROTOCATECHUALDEHYDE], the LD50 in data set [10] came out at 50 µg; in [11], 3 µg; in data set [17], 6 µg. For the same molecule, the “fold change (FC)” value in [12] came out at 1.25; in data set [14], 2.6; in data set [6], 4; in data set [15] it was 1; in data set [9], 12. Also, in [3], the logP is 2. The LD50 result in the data set with Naja kaouthia [4] was “inactive”. Also, the MHC worked out at 60 µg in [7] and 20 µg in data set [8].
With `COc1ccc(C=O)cc1`, the LD50 entry in the data set on Daboia russelii [1], in the data set with Naja kaouthia [2], in the data set with Naja kaouthia [4] and in the data set with Daboia russelii [5] was “inactive” throughout. For the same molecule, the logP in [3] came out at 1.19. The “fold change (FC)” value in data set [6] was 1; in [9], 3. In addition, the MHC was determined as 15 µg in data set [7] and 5 µg in [8].
Regarding `COc1ccccc1OC` [1,2-DIMETHOXYBENZENE], the LD50 result with Daboia russelii [1], in the data set with Naja kaouthia [2], in the data set on Naja kaouthia [4] and with Daboia russelii [5] was “inactive” each time. The log partition coefficient (logP) in [3] turned out to be 1.44. In addition, the “fold change (FC)” value in [6] amounted to 1; in data set [9] it was 2. The MHC in data set [7] was found to be 10 µg; in data set [8], 5 µg.
On to `COc1cccc(C=O)c1`, for which the LD50 worked out at 100 µg in data set [10], 9 µg in [11] and 25 µg in data set [17]. Further, the “fold change (FC)” value in [12] is recorded as 2.5; in data set [14], 11.2; in data set [6] it was 1; in [15] it was 3.2; in [9], 3. Also, in [3], the lipophilicity (logP) came out at 1.15. In addition, in the data set with Naja kaouthia [4], the LD50 entry was “inactive”. For the same molecule, the MHC was 15 µg in data set [7] and 5 µg in [8].
On to `COc1ccc(OC)cc1` [1,4-DIMETHOXYBENZENE], for which the LD50 entry in the data set with Daboia russelii [1], in the data set on Naja kaouthia [2], in the data set on Naja kaouthia [4] and in the data set with Daboia russelii [5] was “inactive” in each case. In data set [3], the lipophilicity (logP) was 1.47. For the same molecule, the results for the “fold change (FC)” value in data set [6] and in [9] were 1 and 2, respectively. The MHC in [7] is 10 µg; in [8], 5 µg.
As to `O=Cc1cc(O)ccc1O`, the LD50 came to 50 µg in [10], 3 µg in [11] and 5 µg in [17]. In addition, the “fold change (FC)” value is 1.25 in data set [12]; 2.1 in data set [14]; 3 in data set [6]; 1 in data set [15]; 7 in data set [9]. In addition, in [3], the logP is 1.53. In the data set on Naja kaouthia [4], the LD50 entry was “inactive”. Moreover, the MHC in data set [7] came to 35 µg; in data set [8], 15 µg.
